Data as given in patent publication US20260183350A1, “ANTIBIOTIC-RESISTANT BACTERIA” (priority 2022, published 2026).

Experiments:
[1] = test system: vancomycin-resistant E. faecalis; assay: VRE nutrient utilization protocol: nitrogen sources, leave-one-out; assay type: cell-based, Enterococcus faecalis; settings: aerobic; leave-one-out from nitrogen source mixture in minimal medium
Method: (§1) VRE minimal media consists of potassium phosphate monobasic (4 g/L), potassium phosphate dibasic (14 g/L), sodium citrate (1 g/L), magnesium sulphate (0.2 g/L), ammonium sulphate (2 g/L), adenosine (0.04 g/L), thymine (0.04 g/L), Kao and Michayluk vitamin solution [Sigma, K3129, 50× Stock](5×), glucose (1 g/L) and amino acid solution [Sigma, R7131, RPMI-1640, 50×](25×). If the study was performed under anaerobic conditions, fumarate (5.2 g/L) was added to increase growth of VRE strains. Carbon-free minimal media was prepared by leaving out glucose while nitrogen-free minimal media was prepared without the amino acid solution. Media was filter sterilized with a 0.22 micron filter and used immediately aerobically or degassed overnight if used anaerobically.
(§2) VRE strains were grown on R2A overnight before the cells were suspended in 0.9% saline to an OD of 0.38 (λ=595 nm). A 10% dilution of the cell suspension was prepared using VRE minimal media to achieve a final well OD of […] (λ=595 nm) greater than the sterile media OD. Both carbon and nitrogen source utilization were evaluated by adding the inoculated media and a filter-sterilised nutrient source solution into a well in a 1:1 ration to a final volume of 100 μL in aerobic tests and 200 μL in anaerobic tests. Carbon sources were tested individually and compared to a carbon-free control. To test nitrogen source utilization, a nitrogen source solution was prepared containing L-alanine (2 g/L), L-arginine (2.5 g/L, L-asparagine (0.71 g/L), L-aspartate (0.25 g/L), L-cysteine (0.625 g/L), L-glutamate (0.25 g/L), L-Glycine (0.125 g/L), L-histidine (0.1875 g/L), L-isoleucine (0.625 g/L), L-leucine (0.625 g/L), L-lysine HCl (0.5 g/L), L-methionine (0.1875 g/L), L-phenylalanine (0.1875 g/L), L-proline (0.25 g/L), L-serine (0.375 g/L), L-threonine (0.25 g/L), L-tryptophan (0.0625 g/L), L-tyrosine (0.29 g/L), L-valine (0.25 g/L), N-acetylglucosamine (2 g/L), and uracil (2.5 g/L). To test the strains' ability to utilize individual nitrogen sources, separate solutions were prepared eliminating one nitrogen source each. The change in growth compared to the complete nitrogen source solution control was used to determine nitrogen utilization. All carbon and nitrogen sources were tested in a technical triplicate for each biological replicate. Aerobic plates were incubated with a plate seal while anaerobic plates were not. The aerobic plate reader was set to read the plate (λ=595 nm, 37° C., 22 flashes per well, orbital shaking of 100 rpm for 15 s prior to each read) every 15 minutes for 24 hours. The anaerobic plate reader read the plate (λ=595 nm, 37° C., stationary) every 15 minutes for 24 hours.

NDM-1 Escherichia coli [2] = assay: Nitrogen utilisation assay; assay type: cell-based; settings: M9 minimal medium with glucose, 0.1% (w/v) nitrogen source
Method: (§3) New Delhi Metallo-β-lactamase 1 (NDM-1) Escherichia coli, NDM-1 Klebsiella pneumoniae, and NDM-1 Enterobacter cloacae were isolated from patients with intestinal CRE colonisation from the Imperial College Healthcare NHS Trust via rectal swab (REC ref. 19/LO/0112). The species were assigned by matrix assisted laser desorption ionization-time of flight (MALDI-TOF) mass spectrometry and later confirmed with 16S rRNA gene sequencing. CRE status was determined using X-pert Carba-R PCR detection (Cepheid, Sunnyvale, CA, USA), (Otter, J. A. et al. Detecting carbapenemase-producing Enterobacterales (CPE): an evaluation of an enhanced CPE infection control and screening programme in acute care. J Antimicrob Chemother 75, 2670-2676 (2020)).
(§4) Growth of CRE isolates on sole carbon or nitrogen sources was tested by inoculating each CRE isolate into a minimal medium supplemented with the nutrient of interest. First, CRE isolates were passaged from frozen glycerol stocks on Reasoner's 2A agar (R2A) plates. Cells were then suspended in M9 minimal media to a turbidity of 42% using a Turbidimeter (Biolog Inc.), then diluted a further 1 in 6 to inoculate the carbon or nitrogen utilisation assays. M9 minimal media contained the following (at final concentrations): 22 mM KH2PO4, 42 mM Na2HPO4, 9 mM NaCl, 0.49 mM MgSO4·7H2O, 0.09 mM CaCl2), 0.011 mM FeSO4·7H2O. For the carbon assays the M9 minimal medium was also supplemented with 0.1% (w/v) NH4Cl (as the nitrogen source) and the carbon sources were individually tested at 0.5% (w/v) concentration. For the nitrogen assays the M9 minimal medium was also supplemented with 0.5% (w/v) glucose (as the carbon source) and the nitrogen sources were individually tested at 0.1% (w/v) concentration. Cultures were incubated anaerobically and aerobically in a plate reader and OD600 readings were collected every 15 minutes for 24 hours.
(§5) Growth curves were analysed in Python (v3.6.5) using the AMiGA software (Midani, F. S., Collins, J. & Britton, R. A. AMiGA: Software for Automated Analysis of Microbial Growth Assays. mSystems 6, e0050821 (2021)). Growth of each isolate was measured with 6 wells from 2-3 independent experiments. Growth curves were normalised to the no substrate control using the subtraction method. AMiGA performed Gaussian Process regression to test differential growth between the substrate and the no substrate control. The functional difference in the OD (and its credible interval) was also computed between the substrate and the no substrate control.

[3] = test system: vancomycin-resistant E. faecium; assay: VRE nutrient utilization protocol: nitrogen sources, leave-one-out; assay type: cell-based, Enterococcus faecium; settings: aerobic; leave-one-out from nitrogen source mixture in minimal medium
Method: as §1, §2

[4] = test system: NDM-1 Enterobacter cloacae; assay: Nitrogen utilisation assay; assay type: cell-based; settings: aerobic; M9 minimal medium with glucose, 0.1% (w/v) nitrogen source
Method: as §3, §4, §5

[5] = test system: NDM-1 Klebsiella pneumoniae; assay: Nitrogen utilisation assay; assay type: cell-based; settings: aerobic; M9 minimal medium with glucose, 0.1% (w/v) nitrogen source
Method: as §3, §4, §5

[6] = test system: NDM-1 Enterobacter cloacae; assay: Carbon utilisation assay; assay type: cell-based; settings: aerobic; M9 minimal medium, 0.5% (w/v) carbon source
Method: as §3, §4, §5

[7] = test system: NDM-1 Klebsiella pneumoniae; assay: Nutrient preference assay (nutrient mixture); assay type: cell-based; settings: M9 with […] of each nutrient, up to 24 hours
Method: as §3
(§6) CRE isolates were passaged once from frozen glycerol stocks on R2A plates. Cells were suspended in M9 minimal media to a turbidity of 42% using a Turbidimeter (Biolog Inc.), then diluted 1 in 6 to inoculate the nutrient preference assays. M9 minimal media was supplemented with 0.015% of each of the following: L-arabinose, D-fructose, L-fucose, D-galactose, D-glucose, D-mannose, D-ribose, D-xylose, N-acetylglucosamine, D-maltose, sucrose, D-trehalose, L-alanine, L-arginine, L-aspartate, L-glutamate, L-glycine, L-isoleucine, L-leucine, L-lysine, L-methionine, L-phenylalanine, L-proline, L-threonine, L-tryptophan, L-tyrosine, L-valine, uracil, and succinate. Cultures were incubated anaerobically and aerobically in a plate reader and OD600 readings were collected every 15 minutes for 24 hours. Cultures were also incubated anaerobically and aerobically for 24 h and samples were collected at 0, 4, 8, and 24 hours post-inoculation for 1H-NMR spectroscopy. Changes in nutrients and metabolites by CRE isolates was compared to the sterile media control over time using a two-way mixed ANOVA followed by pairwise comparisons with Bonferroni correction. […]

[8] = test system: NDM-1 Enterobacter cloacae; assay: Nutrient preference assay (nutrient mixture); assay type: cell-based; settings: M9 with […] of each nutrient, up to 24 hours
Method: as §3, §6

NDM-1 Escherichia coli [9] = assay: Nutrient preference assay (nutrient mixture); assay type: cell-based; settings: M9 with […] of each nutrient, up to 24 hours
Method: as §3, §6

[10] = test system: NDM-1 Klebsiella pneumoniae; assay: Carbon utilisation assay; assay type: cell-based; settings: aerobic; M9 minimal medium, 0.5% (w/v) carbon source
Method: as §3, §4, §5

Row | Compound | Use as nitrogen source to support E. faecalis growth [1] | Use as nitrogen source to support E. faecium growth [3] | Use as sole nitrogen source to support E. cloacae growth [4] | Use as sole nitrogen source to support E. coli growth (NDM-1 Escherichia coli [2]; aerobic) | Use as sole nitrogen source to support K. pneumoniae growth [5] | Utilisation of nutrient by E. cloacae from nutrient mixture (1H-NMR) ([8]; aerobic) | Utilisation of nutrient by E. cloacae from nutrient mixture (1H-NMR) ([8]; anaerobic) | also measured
1 | N[C@@H](CS)C(=O)O [cysteine, L-cysteine] | could use |  |  |  |  |  |  | 
2 | CC(C)[C@H](N)C(=O)O [valine, L-valine] | could use | could use |  |  |  |  |  | Use as sole nitrogen source to support E. coli growth (NDM-1 Escherichia coli [2]; anaerobic): could use
3 | N[C@@H](Cc1c[nH]cn1)C(=O)O [histidine, L-histidine] | could use | could use |  |  |  |  |  | 
4 | CSCC[C@H](N)C(=O)O [methionine, L-methionine] | could use | could use | able to grow | able to grow | able to grow |  |  | 
5 | N[C@@H](Cc1ccccc1)C(=O)O [phenylalanine, L-phenylalanine] |  | could use | able to grow |  |  |  |  | 
6 | C[C@H](O)[C@@H](O)[C@@H](O)[C@H](O)C=O [fucose, L-fucose] |  |  |  |  |  |  |  | Use as sole carbon source to support E. cloacae growth [6]: able to grow; Utilisation of nutrient by K. pneumoniae from nutrient mixture (1H-NMR) ([7]; aerobic): not utilised; Utilisation of nutrient by K. pneumoniae from nutrient mixture (1H-NMR) ([7]; anaerobic): not utilised
7 | CC[C@H](C)[C@H](N)C(=O)O [isoleucine, L-isoleucine] | could use | could use | able to grow | able to grow | able to grow |  |  | 
8 | C[C@@H](O)[C@H](N)C(=O)O [threonine, L-threonine] |  | could use | able to grow | able to grow |  | high utilisation | high utilisation | Utilisation of nutrient by E. coli from nutrient mixture (1H-NMR) (NDM-1 Escherichia coli [9]; aerobic): moderate utilisation; Utilisation of nutrient by K. pneumoniae from nutrient mixture (1H-NMR) ([7]; aerobic): high utilisation
9 | O=C(O)[C@@H]1CCCN1 [proline, L-proline] |  |  | able to grow | able to grow | able to grow | not utilised | not utilised | Use as sole carbon source to support K. pneumoniae growth [10]: able to grow; Utilisation of nutrient by E. coli from nutrient mixture (1H-NMR) (NDM-1 Escherichia coli [9]; aerobic): not utilised; Utilisation of nutrient by E. coli from nutrient mixture (1H-NMR) (NDM-1 Escherichia coli [9]; anaerobic): not utilised; Utilisation of nutrient by K. pneumoniae from nutrient mixture (1H-NMR) ([7]; anaerobic): not utilised
10 | N[C@@H](CO)C(=O)O [serine, L-serine] | could use | could use |  |  |  |  |  | 
11 | CC(C)C[C@H](N)C(=O)O [leucine, L-leucine] | could use | could use | able to grow | able to grow | able to grow |  |  | 
12 | N[C@@H](Cc1ccc(O)cc1)C(=O)O [tyrosine, L-tyrosine] |  |  |  | able to grow |  | not utilised | not utilised | 
13 | O=c1cc[nH]c(=O)[nH]1 [uracil] |  |  | able to grow | able to grow | able to grow | did not use | did not utilise | Utilisation of nutrient by E. coli from nutrient mixture (1H-NMR) (NDM-1 Escherichia coli [9]; aerobic): moderate utilisation; Utilisation of nutrient by E. coli from nutrient mixture (1H-NMR) (NDM-1 Escherichia coli [9]; anaerobic): moderate utilisation; Utilisation of nutrient by K. pneumoniae from nutrient mixture (1H-NMR) ([7]; aerobic): low utilisation; Utilisation of nutrient by K. pneumoniae from nutrient mixture (1H-NMR) ([7]; anaerobic): did not utilise
